Data set [1] has as its system ileum of a cavy (BaCl2 spasm). Description: Antispastic activity in vitro, Magnus method, cavy ileum stimulated with BaCl2. It counts as cell-based. Particulars: ratio to papaverine = 1; Table 1; 37°. The protocol:
C. The method in vitro is that of Magnus, with the ileum of the cavy, and is in common use for all evaluations. It consists of extracting the ileum from the cavy and placing it in a receptacle which contains nutritive liquid, suitably oxygenated, and registering the movements of the organ which remains alive for several hours if maintained at a temperature of 37°. According to the traditional method followed by us, BaCl2 is put into the bath as a spasmisant: the reaction is a violent contraction of the organ. This contraction can be prevented by adding beforehand pharmaceuticals which inhibit spasms, and in this case our compounds.
The values recorded are expressed as relation between papaverine and the ED50 of our compounds. (As is known, the ED50 is the dose which results in a 50% reduction in spastic contraction).
E. I.T.2 is the therapeutic index under the profile of the antispastic activity in vitro and is given by the product between the in vitro antispastic activity index (column 4) and the corresponding DL50 (column 2).

The test system of data set [2] is rat. Nature of the data set: Acute toxicity (DL50) i.v. in rat. It counts as in vivo. The note with it: dose causing death in 50% of the animals. Here is the method:
(§1) In this table (n. 1) there are recorded the compounds described in the examples with their relative serial numbers, the acute toxicity, the antispastic activity observed in two experimental tests, one "in vivo" and one "in vitro". There are moreover recorded two therapeutic indices which take account of the toxicity of these compounds in relation to their in vivo and in vitro activity. More precisely:
(§2) A. DL50 which, as is known, is the quantity of the substance expressed in mg/kg of animal weight, capable of causing death in 50% of the animals treated.

Data set [3] relates to intestinal transit of the charcoal. Nature of the data set: Vegetable carbon (charcoal) intestinal transit test in vivo. The note with it: i.v., rat, charcoal test, 2 hours; for ED50: Rattus norvegicus, iv, 2 h, read-out: Antisp. activity in transit test: ED50. On the set-up: species or system rat. The protocol: B. The vegetable carbon method in vivo (charcoal method) which consists of administering by oral means to rats, which have fasted for 24 hours, 0.3ml/per rate of a mixture consisting of: 10g of charcoal and 5 g of gum arabic suspended in a volume of 100 cc of H2 O as well as at the same time the substance being studied, accordingly as desired, generally i.v., s.c., oral. After two hours the animals are killed and those are taken to be negative in which the charcoal has reached the first portion of the colon and the others positive, in the sense that the substance administered has slowed down the intestinal transit of the charcoal.
In effect the animals treated with a physiological solution (checks) are all negative after two hours.
D. I.T.1 is the therapeutic index under the profile of the antispastic activity in vivo, and it is obtained by recording the DL50 (column 2) with the ED50 of the charcoal test (column 3).

A short description of data set [4]: Acute toxicity (DL50) i.v. in rat. It counts as in vivo. The note with it: in vivo, iv, dose causing death in 50% of the animals. Here is the method: as §1, §2

The source of these data is US4004008A, “O-Tertiary amino-alkyl-N-benzoyl tyrosil amides” (priority 1974, dated 1977).

For orientation: LD50 means the dose expected to kill half of the subjects tested. A low value points to greater toxicity. For orientation: ED50 means the midpoint of the dose-response relation.

On to `CCCN(CCC)C(=O)C(Cc1ccc(OCCCN(C)C)cc1)NC(=O)c1ccccc1` (racemic) [CR 607, O-(3-dimethylamino-propyl)-N-benzoyl-DL-tyrosil-di-n-propylamide], for which the “Antisp. activity in vitro on the ileum of a cavy by Stim. BaCl2: ED50 pap./ED50 CR” value (from here on “Antisp. activity in vitro on the ileum”) in data set [1] is 0.41. In addition, in data set [2], the “DL50 in a rat” value is reported as 32.4 mg/kg. Further, in data set [3] (120 min), the “Antisp. activity in transit test: ED50” value is reported as 26.7 mg/kg.
`CCCCNC(=O)C(Cc1ccc(OCCN2CCN(C)CC2)cc1)NC(=O)c1ccc(Cl)cc1` (racemic) [CR 730, O-[2-(N"-methyl-piperazine)-N'-ethyl]-N-(p-chloro-benzoyl)-DL-tyrosil-n-butylamide]: the “Antisp. activity in vitro on the ileum” value in data set [1] was 0.99. Also, in data set [4], the LD50 was found to be 50 mg/kg. In addition, the ED50 in data set [3] was 30.2 mg/kg.
Taken in the same sequence, the figures for `CCCN(CCC)C(=O)C(Cc1ccc(OCCN2CCN(C)CC2)cc1)NC(=O)c1ccc(Cl)cc1` (racemic) [CR 733, O-[2'-(N"-methyl-piperazine)-N'-ethyl]-N-(p-chloro-benzoyl)-DL-tyrosil-di-n-propylamide] were 1.31, 43.5 mg/kg and 16.7 mg/kg.
For `CCN(CC)CCOc1ccc(CC(NC(=O)c2ccccc2)C(=O)N(CC)CC)cc1` (racemic) [CR 734, O-(2-diethylamino-ethyl)-N-benzoyl-DL-tyrosil-di-ethylamide], the “Antisp. activity in vitro on the ileum” value in data set [1] stood at 0.52. The compound further showed an LD50 in data set [4] of 62.2 mg/kg. Moreover, the ED50 in data set [3] was determined as 33.4 mg/kg.
As to `CCN(CC)C(=O)C(Cc1ccc(OCCN2CCN(C)CC2)cc1)NC(=O)c1ccccc1` (racemic) [CR 736, O-[2-(N"-methyl-piperazine)-N'-ethyl]-N-benzoyl-DL-tyrosildiethylamide], the “Antisp. activity in vitro on the ileum” value in data set [1] came to 0.04. In addition, in data set [4], the LD50 worked out at 102 mg/kg. In data set [3], the ED50 is 39.6 mg/kg.
As to `CCN(CC)CCOc1ccc(CC(NC(=O)c2ccccc2)C(=O)N(C)C)cc1` (racemic) [CR 738, O-(2-diethylamino-ethyl)-N-benzoyl-DL-tyrosil-di-methylamide], the “Antisp. activity in vitro on the ileum” value in data set [1] is reported as 0.14. Also, in data set [4], the LD50 was 85.3 mg/kg. The ED50 in data set [3] was 50.6 mg/kg.
On to `CCN(CC)CCOc1ccc(CC(NC(=O)c2ccccc2)C(N)=O)cc1` (racemic) [CR 740, O-(2-dietylamino-ethyl)-N-benzoyl-DL-tyrosil-amide], for which the “Antisp. activity in vitro on the ileum” value in data set [1] is reported as 0.36. The compound further registered an LD50 in data set [4] of 102 mg/kg. In addition, the “Antisp. activity in transit test: ED50” value in data set [3] was “inactive”.
For the compound `CCCCNC(=O)C(Cc1ccc(OCCN(CC)CC)cc1)NC(=O)c1ccccc1` (racemic) [CR 786, O-(2-diethylamine-ethyl)-N-benzoyl-DL-tyrosil-n-butylamide], the “Antisp. activity in vitro on the ileum” value in data set [1] was 0.17. In data set [4], the LD50 is 38 mg/kg. For the same compound, the ED50 in data set [3] was determined as 34.3 mg/kg.
For `CCCCNC(=O)C(Cc1ccc(OCCN2CCCC2)cc1)NC(=O)c1ccc(Cl)cc1` (racemic) [CR 812, O-(2'-pyrrolidil-N'-ethyl)-N-(p-chloro-benzoyl)-DL-tyrosil-n-butylamide], in data set [1], the “Antisp. activity in vitro on the ileum” value came out at 1.03. The same compound displayed an LD50 in data set [4] of 27 mg/kg. Further, the ED50 in data set [3] worked out at 21 mg/kg.
Taken in the same sequence, the figures for `CCCNC(=O)C(Cc1ccc(OCCN2CCCC2)cc1)NC(=O)c1ccccc1` (racemic) [CR 821, O-(2-pyrrolidil-N'-ethyl)-N-benzoyl-DL-tyrosil-n-propylamide] were 0.13, 53 mg/kg and 15.6 mg/kg.
For `CCCN(CCC)CCOc1ccc(CC(NC(=O)c2ccccc2)C(=O)N(CCC)CCC)cc1` (racemic) [CR 823, O-(2-di-n-propylamino-ethyl)-N-benzoyl-DL-tyrosil-di-n-propylamide] the same measures were 1.48, 23 mg/kg and 16.2 mg/kg.
Regarding `CCCCCCNC(=O)C(Cc1ccc(OCCN2CCCC2)cc1)NC(=O)c1ccccc1` (racemic) [CR 825, O-(2-pyrrolidil-N'-ethyl)-N-benzoyl-DL-tyrosil-n-hexylamide], the “Antisp. activity in vitro on the ileum” value in data set [1] is given as 1.8. Further, in data set [4], the LD50 was determined as 42 mg/kg. The ED50 in data set [3] is 14.8 mg/kg.
For `CCCN(CCC)C(=O)C(Cc1ccc(OCCN(CC)CC)cc1)NC(=O)OCc1ccccc1` (racemic) [CR 832, O-(2-diethylamino-ethyl)-N-carbobenzoxy-DL-tyrosil-di-n-propylamide] the same measures were 1.40, 32.4 mg/kg and 16.3 mg/kg.
For the compound `CN(C)CCOc1ccc(C[C@H](NC(=O)OCc2ccccc2)C(=O)N2CCOCC2)cc1` [CR 606, O-(2-dimethylamino-ethyl)-N-carbobenzoxy-L-tyrosil-morpholylamide], the “Antisp. activity in vitro on the ileum” value in data set [1] is listed as 0.19. For the same compound, the LD50 in data set [4] came to 128 mg/kg. Moreover, the “Antisp. activity in transit test: ED50” value in data set [3] was “inactive”.
`CCNC(=O)C(Cc1ccc(OCCN(C)C)cc1)NC(=O)OCc1ccccc1` [CR 610, O-(2-dimethylamino-ethyl)-N-carbobenzoxy-L-tyrosil-ethylamide]: the “Antisp. activity in vitro on the ileum” value in data set [1] worked out at 0.13. Further, in data set [4], the LD50 is 139 mg/kg. The ED50 in data set [3] stood at 58.1 mg/kg.
For `CN(C)CCOc1ccc(C[C@H](NC(=O)OCc2ccccc2)C(=O)NCc2ccccc2)cc1` [CR 612, O-(2-dimethylamino-ethyl)-N-carbobenzoxy-L-tyrosil-benzylamide] the same measures were 0.35, 87.7 mg/kg and 23 mg/kg.
As to `CCCN(CCC)C(=O)C(Cc1ccc(OCCN(C)C)cc1)NC(=O)OCc1ccc([N+](=O)[O-])cc1` (centres unmarked) [CR 613], in data set [1], the “Antisp. activity in vitro on the ileum” value stood at 0.68. The LD50 in data set [4] was found to be 100 mg/kg. For the same compound, the ED50 in data set [3] amounted to 58.7 mg/kg.
For `CCCN(CCC)C(=O)C(Cc1ccc(OCCN(CC)CC)cc1)NC(=O)c1ccccc1` [CR 804, O-(2-diethylamino-ethyl)-N-benzoyl-L-tyrosil-di-n-propylamide] the same measures were 0.89, 33.5 mg/kg and 16.1 mg/kg.
Regarding `CCCN(CCC)C(=O)C(Cc1ccc(OCCN(CC)CC)cc1)NC(=O)OCc1ccccc1` [CR 830, O-(2-diethylamino-ethyl)-N-carbobenzoxy-L-tyrosil-di-n-propylamide], the “Antisp. activity in vitro on the ileum” value in data set [1] turned out to be 1.49. Besides, in data set [4], the LD50 is 31.5 mg/kg. Also, the ED50 in data set [3] was 17.3 mg/kg.
Turning to `CCCN(CCC)C(=O)C(Cc1ccc(OCCN(CC)CC)cc1)NC(=O)c1ccc(Cl)cc1` [CR 831, O-(2-diethylamino-ethyl)-N-(p-chloro-benzoyl)-L-tyrosil-din-propylamide], the “Antisp. activity in vitro on the ileum” value in data set [1] came to 1.30. This compound returned an LD50 in data set [4] of 35 mg/kg. For the same compound, the ED50 in data set [3] turned out to be 24.4 mg/kg.
As for “O-(2-diisopropylamino-ethyl)-N-toluoyl-DL-tyrosil-n-butylamide [CR 709]”, the “DL50 in a rat” value in data set [2] is 40 mg/kg. Further, the “Antisp. activity in transit test: ED50” value in data set [3] amounted to 36.1 mg/kg.
